Data from patent EP4198025A1, “BENZIMIDAZOLE DERIVATIVES FOR THE TREATMENT AND PROPHYLAXIS OF INFECTIOUS DISEASES” (Eberhard Karls Universität Tübingen Medizinische Fakultät, priority 2021, dated 2023).
Read-outs that look alike come from different tables or passages of the source.

Experiments:
firefly Luciferase = firefly Luciferase (Photinus pyralis, UniProt P08659); assay: Luciferase interference deselection assay (D1) at the ELF; assay type: biochemical
Description: The confirmed actives of ELF program ELFSC17_02 were tested as serial dilutions in the primary assay and deselection assay to generate dose response curves (DRCs). The serial dilutions consisted of 7 equidistant concentration steps (20 µM to 27.4 nM) and were tested in the primary and in the deselection assay in duplo (n=2) in 1536-well format. […] For the luciferase interference deselection assay in DRC-format, luciferase was left out in the Max effect wells, mimicking a 100% effect situation and resulting in a decreased signal. Compounds showing a signal decrease larger than 5 times the standard deviation (Z-score > 5) were identified as luciferase inducer. […] The ActivityBase application (IDBS) was used to analyze the data and to calculate quality parameters like Z-prime and Signal to Background ratio (S/B). For all compounds the % effect was calculated for all seven concentrations. ActivityBase was also used to calculate the pEC50 and Hill Slope. […] For compounds where no curve was fitted but reached >50% effect at 20 µM the Fit_Max was locked at 100% effect. For compounds where no curve was fitted but reached 100% effect at 20 µM and descended to <50% at 27 nM the Fit_Min was locked at 0%.

Luciferase = Luciferase (Photinus pyralis, UniProt P08659); assay: Primary assay buffer control without SurA: interference with Luciferase per se; assay type: biochemical, firefly; set-up: key: no influence on Luc activity = 0; enhances Luc activity = +; reduces Luc activity = -
Sequence of Luciferase (P08659 whole entry): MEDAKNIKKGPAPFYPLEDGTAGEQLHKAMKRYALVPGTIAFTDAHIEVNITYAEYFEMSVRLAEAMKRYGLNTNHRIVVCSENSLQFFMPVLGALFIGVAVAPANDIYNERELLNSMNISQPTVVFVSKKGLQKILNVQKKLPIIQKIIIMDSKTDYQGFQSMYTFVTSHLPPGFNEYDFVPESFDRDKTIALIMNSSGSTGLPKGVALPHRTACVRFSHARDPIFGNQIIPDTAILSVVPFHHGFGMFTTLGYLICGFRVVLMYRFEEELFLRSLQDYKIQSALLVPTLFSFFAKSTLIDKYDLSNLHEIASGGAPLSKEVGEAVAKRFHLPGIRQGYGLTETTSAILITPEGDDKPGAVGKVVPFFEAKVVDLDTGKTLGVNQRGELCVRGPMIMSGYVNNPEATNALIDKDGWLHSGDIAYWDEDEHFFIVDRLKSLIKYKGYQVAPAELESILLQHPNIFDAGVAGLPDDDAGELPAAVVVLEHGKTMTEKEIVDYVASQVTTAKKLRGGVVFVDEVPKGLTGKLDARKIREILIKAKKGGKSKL
Description: In short, the Luciferase based SurA activity assay was performed in SurA Activity Assay Buffer (40 mM HEPES pH 7.4, 20 mM MgSO4, 0.5 g/l BSA). SurA aliquots were thawn at RT, activated by mild heat treatment and cooled down to RT for 10 min. SurA concentration was adjusted to 1.6 µM in Activity Assay Buffer (protein solution). Solution A containing 10 mM ATP as well as 0.3 mM Luciferin (Promega Beetle Luciferin, Potassium Salt) in water was prepared. Luciferase working solution was prepared by diluting 1 ml Luciferase working stock (100 nM) with 9 ml assay buffer. 33 µl of the protein solution were added to every 2nd row of a well of a 384-well PS, white, flat bottom plate. […] Subsequently, 2 µl of compound in DMSO were added in quadruplicates (4 wells each of protein solution and buffer controls). These compound solutions could contain either various compounds or different dilutions of the same compound allowing screening inhibitor activity in a dose dependent manner. After compound addition, plates were incubated 15 min at RT. After this incubation, 5 µl of Luciferase working solution were added to each well. […] Subsequently, the assay plate was cooled for 5 min at 4°C followed by 10 min incubation at RT prior to luminescence measurement. Luminescence was measured in a TECAN infinite M200 pro plate reader for each well individually after injection of 10 µl Solution A. […]

SurA [1] = target: T1, SurA (Escherichia coli, UniProt P0ABZ6); assay: biochemical; assay type: binding, E. coli
T1 sequence (P0ABZ6 21-428): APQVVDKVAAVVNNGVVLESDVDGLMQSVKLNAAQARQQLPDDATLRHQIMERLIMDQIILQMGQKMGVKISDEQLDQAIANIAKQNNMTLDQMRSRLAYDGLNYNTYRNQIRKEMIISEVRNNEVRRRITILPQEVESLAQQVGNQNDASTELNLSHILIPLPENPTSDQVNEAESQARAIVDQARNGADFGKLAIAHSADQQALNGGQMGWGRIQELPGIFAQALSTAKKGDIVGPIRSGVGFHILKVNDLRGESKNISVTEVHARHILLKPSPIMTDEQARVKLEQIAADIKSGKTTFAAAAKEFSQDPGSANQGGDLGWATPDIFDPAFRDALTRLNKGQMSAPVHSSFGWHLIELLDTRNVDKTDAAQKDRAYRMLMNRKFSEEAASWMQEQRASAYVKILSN
Description: His-tagged SurA was labeled with the Monolith His-Tag Labeling Kit RED-tris-NTA (Nanotemper) according to the manufacturer's instructions.
Microscale thermophoresis measurements were performed in 40 mM HEPES pH 7.4, 0.05 % Tween-20 at 25°C with a Monolith NT.115 (NanoTemper) in standard capillaries.

SurA [2] = target: T1, SurA; assay: biochemical; assay type: biochemical, E. coli
From the text: The biological function of SurA is to bind and to keep outer membrane proteins that have reached the periplasm in an unfolded but folding-competent state. The inventors' assay is based on this interaction and uses firefly Luciferase (fLuc) as a non-native substrate. […] The loss of tertiary structure of fLuc leads to the exposure of binding sites for SurA. It is known that SurA binds selectively to a special group of substrates. These substrates have in common the specific patterns of hydrophobic amino acids that are highly enriched in the beta strands of integral outer membrane proteins. These motifs are present in OMPs of all Gram-negative bacteria and in fLuc as well. Upon mild heat treatment of fLuc and its subsequent partial unfolding, fLuc is accepted as a substrate by SurA. Of note, these intermediates served as reporter substrates to determine the activity of a cytoplasmic folding chaperone. […] This interaction remains stable upon temperature reduction. Next, the temperature of the assay is reduced to room temperature and luciferase activity is subsequently measured by addition of Luciferin and ATP. In conditions without SurA, fLuc will refold into its active conformation resulting in a luminescence signal.
Of note, the SurA activity assay was performed similar at the ELF but with optimizations in regard of the higher throughput including the change of the plate format to 1536-wells. The SurA activity assay performed at the ELF contained the following steps (adapted from the QHL report provided by the ELF). First, SurA was thawed at RT and heat activated in a water bath. Next, the vial was taken out of the water bath and cooled down to RT for 30 min @ bench. […] Noteworthy, the SurA solution was kept on ice. 15 nL of 4 mM compound in DMSO were added to columns 9-48 with Echo acoustic nano-dispenser (ECHO). Additionally, 15 nL 100% DMSO were transferred to columns 1-8 with ECHO. […] The plate was spun for 60 seconds at 1000 rpm to ensure proper fluid localization at the bottom of the wells. […] Again, the plate was centrifuged for 60 seconds at 1000 rpm. […] To allow refolding of the luciferase, the plate was incubated 30 minutes at RT.

E. coli ATCC 25922 = assay: Minimal inhibitory concentration assay / Vancomycin sensitizer MIC assay; assay type: cell-based; settings: Escherichia coli, ATCC25922
From the text: The intended effect of a SurA inhibitor should be the induction of a disturbance of the outer membrane composition resulting in an increased susceptibility to antibiotic treatment. Of note, Vancomycin is typically not used to treat infections with Gram-negative bacteria, because it is excluded by the OM and not efficient at concentrations that could be achieved in patients. However, at appropriate dosing in vitro it can be used to detect outer membrane defects. For determining a potential sensitizing effect of Vancomycin treatment, the inventors first tested whether the compounds at hand were bactericidal per se. Therefore, the inventors performed a minimal inhibitory concentration (MIC) assay. To this end, 5 ml overnight cultures of E. coli BW25113 (Keio-Collection reference strain), E. coli JW2496-3 (Keio-Collection single gene knockout for bamB, which suffers from decreased outer membrane integrity) and E. coli ATCC 25922 (a reference strain recommended for antibiotic susceptibility testing) were grown in Mueller Hinton Broth, Cation adjusted (MHB-II). […] After o/n incubation, bacterial growth was quantified by measuring the optical density at 600 nm wavelength in a multiplate reader. […] Of note, the bactericidal effect of Vancomycin was assessed similarly for each test strain using Vancomycin concentrations ranging from 512 - 0.25 mg/ml. […]

SurA [3] = target: T1, SurA; assay type: biochemical, E. coli; set-up: key to primary assay SurA: SurA inhibition = +; no SurA inhibiton = 0
From the text: The biological function of SurA is to bind and to keep outer membrane proteins that have reached the periplasm in an unfolded but folding-competent state. The inventors' assay is based on this interaction and uses firefly Luciferase (fLuc) as a non-native substrate. […] This is exploited in the assay (Figure 3). The loss of tertiary structure of fLuc leads to the exposure of binding sites for SurA. It is known that SurA binds selectively to a special group of substrates. These substrates have in common the specific patterns of hydrophobic amino acids that are highly enriched in the beta strands of integral outer membrane proteins. These motifs are present in OMPs of all Gram-negative bacteria and in fLuc as well. Upon mild heat treatment of fLuc and its subsequent partial unfolding, fLuc is accepted as a substrate by SurA. Of note, these intermediates served as reporter substrates to determine the activity of a cytoplasmic folding chaperone. […] This interaction remains stable upon temperature reduction. Next, the temperature of the assay is reduced to room temperature and luciferase activity is subsequently measured by addition of Luciferin and ATP. In conditions without SurA, fLuc will refold into its active conformation resulting in a luminescence signal. […] In the case of presence of a SurA inhibitor (Figure 3 B), fLuc will adopt an active conformation resulting in an increased luminescence signal compared to conditions without SurA inhibition.
In short, the Luciferase based SurA activity assay was performed in SurA Activity Assay Buffer (40 mM HEPES pH 7.4, 20 mM MgSO4, 0.5 g/l BSA). SurA aliquots were thawn at RT, activated by mild heat treatment and cooled down to RT for 10 min. SurA concentration was adjusted to 1.6 µM in Activity Assay Buffer (protein solution). […] Subsequently, the assay plate was cooled for 5 min at 4°C followed by 10 min incubation at RT prior to luminescence measurement. Luminescence was measured in a TECAN infinite M200 pro plate reader for each well individually after injection of 10 µl Solution A.

HepG2 cells = assay: Cytotoxicity assay, LDH release; assay type: cell-based; settings: 500 µM compound
Description: Cell cytotoxicity was evaluated monitoring the LDH release from HepG2 cells using the CytoTox 96® Non-Radio Cytotoxicity Assay (Promega) according to the manufacturer's instructions. […] After incubation, 25 µl were transferred into a fresh 96-well flat clear bottom plate and mixed with 25 µl CytoTox 96® Reagent. LDH release reactions were incubated 30 min at RT in the dark and 25 µl Stop Solution were added. LDH release was measured at 490 nm in a multiplate reader.

SurA [4] = target: T1, SurA; assay type: binding, E. coli; set-up: key to nanoDSF pH 5 Ti#1 / nanoDSF pH 5 Ti#2 / nanoDSF pH 7.4 Ti#1 / nanoDSF pH 7.4 Ti#2: An increase of the inflection points in the nanoDSF experiments is indicated by (+); a decrease by (-); no changes with (none); ambiguity with a question mark (?)
Description: To this end, 5 µl of a 2 mM compound solution in DMSO were mixed with 95 µl of a 20 µM SurA solution. Technical triplicate measurements were performed on a Prometheus system (NanoTemper).

[5] = Solubility estimate based on turbidity (OD600nm); assay type: physicochemical
From the text: The activity in the primary assay is distinguished into influence on SurA (SurA inhibition = +; no SurA inhibiton = 0) or interference with Luciferase per se (no influence on Luc activity = 0; enhances Luc activity = +; reduces Luc activity = -).

SurA [6] = target: T1, SurA; assay type: binding, E. coli; set-up: key: An increase of the inflection points in the nanoDSF experiments is indicated by (+); a decrease by (-); no changes with (none); ambiguity with a question mark (?); settings: 100 µM compound, 2 µM SurA, 40 mM HEPES pH 7.4
Description: Nano Differential Scanning Fluorimetry (nanoDSF) measurements of the QHL (qualified hit list) compounds provided by the ELF were performed on a Tycho system (NanoTemper).

Sequence of firefly Luciferase (P08659 whole entry): as the sequence (P08659 whole entry) above

CN(C)c1ccc(-c2nc3cc(NC(=O)Cn4cc5ccccc5n4)ccc3[nH]2)cc1 [QHL-24, N-(2-(4-(dimethylamino)phenyl)-1H-benzo[d]imidazol-5-yl)-2-(2H-indazol-2-yl)acetamide]
IC50 (firefly Luciferase): 38 µM | Deselection (D1) plC50 (firefly Luciferase; Luciferase interference, 7 concentration steps 20 µM to 27.4 nM): 4.42 | primary assay Luciferase (Luciferase): - | Kd (SurA [1]): 0.02 to 0.03 mM | Re-evaluation (Tuebingen) MST score (SurA [1]; re-evaluation of QHL compound remainders): inconclusive | Kd (SurA [1]; read-out: MST (Kd in mM)): 0.02 to 0.03 mM | IC50 (SurA [2]): 3.55 µM | Primary assay (P1) % Effect (SurA [2]; ELF library screen, 1536-well): 151% | Primary assay (P1) Z-score (SurA [2]; ELF library screen, 1536-well): 191.97 | LipE (SurA [2]; listed under calculated properties): 1.39 | MIC (E. coli ATCC 25922): < 256 µg/mL | SurA inhibition in the Luciferase-based SurA activity assay (in words) (SurA [3]): very high SurA inhibition | Primary Assay ICmax (SurA [3]; concentration of maximum SurA inhibition, dose response up to 250 µM, resynthesized/repurchased compounds): 5 to 10 µM | primary assay SurA (SurA [3]; influence on SurA): + | CytoTox (observation in the well) (HepG2 cells): precipitate | CytoTox (HepG2 cells; LDH release, 1 h at 37°C): 7.87% | thermal stability of SurA as detected by nanoDSF (in words) (SurA [4]): affected the thermal stability of SurA | nanoDSF pH 7.4 Ti#1 (SurA [4]; 40 mM HEPES pH 7.4, 150 NaCl): none | nanoDSF pH 7.4 Ti#2 (SurA [4]; 40 mM HEPES pH 7.4, 150 NaCl): - | nanoDSF pH 5 Ti#1 (SurA [4]; 50 mM HAc pH 5): none | nanoDSF pH 5 Ti#2 (SurA [4]; 50 mM HAc pH 5): + | solubility (in words) [5]: poor solubility | Re-evaluation (Tuebingen) nanoDSF (Tycho) Ti#1 (SurA [6]): none | Re-evaluation (Tuebingen) nanoDSF (Tycho) Ti#2 (SurA [6]): +
